Reference: ChEMBL document CHEMBL5214900, “Design, Synthesis, and Biological Evaluation of Membrane-Active Bakuchiol Derivatives as Effective Broad-Spectrum Antibacterial Agents” (J Med Chem, 2021)
In brackets after ≈: the same amount, converted by molar mass. Activity calls are given as the source filed them. No cut-off for these calls is given here.

What was measured:
Escherichia coli [1] = assay: Antibacterial activity against Escherichia coli ATCC 25922 assessed as fold increase in MIC incubated for 24 hrs in presence of 1 mM Mg2+ by CLSI based broth dilution method; format: functional
Staphylococcus aureus [2] = assay: Induction of drug resistance in Staphylococcus aureus ATCC 29213 assessed as fold change in MIC measured after 19 passages by CLSI based broth dilution method; format: functional
Escherichia coli [3] = assay: Antibiofilm activity against Escherichia coli ATCC 25922 assessed reduction in biofilm formation at 6.25 ug/ml measured after 24 hrs by crystal violet staining based assay relative to control; format: functional; design: scale not given: the % may be the effect or the level left; details: dose 6.25 µg/ml
Staphylococcus aureus [4] = assay: Antibacterial activity against Staphylococcus aureus ATCC 29213 assessed as fold increase in MIC incubated for 24 hrs in presence of 140 mM Na+ by CLSI based broth dilution method; format: functional
Klebsiella pneumoniae = assay: Antibacterial activity against Klebsiella pneumoniae ATCC 10031 assessed as inhibition of bacterial growth incubated for 24 hrs by CLSI based broth dilution method; format: functional
Acinetobacter baumannii [5] = assay: Antibacterial activity against Acinetobacter baumannii R2889 assessed as inhibition of bacterial growth incubated for 24 hrs by CLSI based broth dilution method; format: functional
Escherichia coli [6] = assay: Antibacterial activity against Escherichia coli ATCC 25922 assessed as fold increase in MIC incubated for 24 hrs in presence of 2.5 mM Ca2+ by CLSI based broth dilution method; format: functional
Staphylococcus aureus [7] = assay: Antibacterial activity against Staphylococcus aureus ATCC 29213 assessed as eradication of preformed bacterial biofilm by measuring residual biofilm viability at 25 ug/ml incubated for 24 hrs by crystal violet staining based assay relative to control; format: functional; details: dose 25 µg/ml
Staphylococcus aureus [8] = assay: Antibacterial activity against Staphylococcus aureus ATCC 29213 assessed as inhibition of bacterial growth incubated for 24 hrs by CLSI based broth dilution method; format: functional
Staphylococcus aureus [9] = assay: Antibacterial activity against Staphylococcus aureus ATCC 29213 assessed as eradication of preformed bacterial biofilm by measuring residual biofilm viability at 12.5 ug/ml incubated for 24 hrs by crystal violet staining based assay relative to control; format: functional; details: dose 12.5 µg/ml
Cell membrane = assay: Induction of outer membrane permeabilization in Escherichia coli ATCC 25922 assessed as increase in fluorescence intensity at 1 to 8 times MIC measured for 60 mins by NPN uptake assay; format: subcellular; details: DDE = dose-dependent effect
Staphylococcus aureus [10] = assay: Antibiofilm activity against Staphylococcus aureus ATCC 29213 assessed reduction in biofilm formation at […] ug/ml measured after 24 hrs by crystal violet staining based assay relative to control; format: functional; design: scale not given: the % may be the effect or the level left; details: dose […] microg/ml, 1.56 ug/mL
[11] = Cytotoxicity against mouse NCTC clone 929 cells assessed as cell viability at 12.5 ug/ml incubated for 24 hrs by CCK-8 assay relative to control; format: toxicity, cell-based; details: at 12.5 µg/mL, read-out: Activity
Acinetobacter baumannii [12] = assay: Antibacterial activity against Acinetobacter baumannii ATCC 17978 assessed as fold increase in MIC incubated for 24 hrs in presence of 4.5 mM K+ by CLSI based broth dilution method; format: functional
Lipopolysaccharide (LPS) [13] = assay: Displacement of BODIPY-TR-cadaverine from Escherichia coli Lipopolysaccharide at 4 times MIC measured for 30 mins by fluorescence based microplate reader assay relative to control
Lipoteichoic acid [14] = assay: Displacement of BODIPY-TR-cadaverine from Bacillus subtilis Lipoteichoic acid at 2 times MIC measured for 30 mins by fluorescence based microplate reader assay relative to control
[15] = Toxicity in C57BL/6 mouse assessed as signs of toxicity in cornea at 0.8 mg/ml, TOP administered 4 times a day for 3 consecutive days; details: in vivo, topical_or_ocular, 72 h, time 3 day
Escherichia coli [16] = assay: Bactericidal activity against Escherichia coli ATCC 25922 assessed as inhibition of bacterial regrowth at 4 to 8 times MIC measured after 24 hrs by time-killing assay; format: functional, organism-based
Lipoteichoic acid [17] = assay: Displacement of BODIPY-TR-cadaverine from Bacillus subtilis Lipoteichoic acid at 4 times MIC measured for 30 mins by fluorescence based microplate reader assay relative to control
Staphylococcus aureus [18] = assay: Antibacterial activity against methicillin-resistant Staphylococcus aureus NCTC10442 assessed as inhibition of bacterial growth incubated for 24 hrs by CLSI based broth dilution method; format: functional
[19] = Cytotoxicity against HEK293 cells assessed as cell viability incubated for 24 hrs by CCK-8 assay; format: toxicity, cell-based; details: human
Escherichia coli [20] = assay: Antibiofilm activity against Escherichia coli ATCC 25922 assessed reduction in biofilm formation at […] ug/ml measured after 24 hrs by crystal violet staining based assay relative to control; format: functional; design: scale not given: the % may be the effect or the level left; details: dose […] microg/ml, 1.56 ug/mL
Staphylococcus aureus [21] = assay: Antibacterial activity against Staphylococcus aureus NCTC10442 assessed as fold increase in MIC incubated for 24 hrs in presence of 2.5 mM Ca2+ by CLSI based broth dilution method; format: functional
Staphylococcus aureus [22] = assay: Antibacterial activity against Staphylococcus aureus ATCC 29213 assessed as eradication of preformed bacterial biofilm by measuring residual biofilm viability at […] ug/ml incubated for 24 hrs by crystal violet staining based assay relative to control; format: functional; details: dose […] microg/ml, 1.56 ug/mL
Escherichia coli [23] = assay: Antibacterial activity against Escherichia coli ATCC 25922 assessed as eradication of preformed bacterial biofilm by measuring residual biofilm viability at 0.78 ug/ml incubated for 24 hrs by crystal violet staining based assay relative to control; format: functional; details: dose 0.78 µg/ml
Escherichia coli [24] = assay: Antibacterial activity against Escherichia coli ATCC 25922 assessed as eradication of preformed bacterial biofilm by measuring residual biofilm viability at 25 ug/ml incubated for 24 hrs by crystal violet staining based assay relative to control; format: functional; details: dose 25 µg/ml
Staphylococcus aureus [25] = assay: Antibacterial activity against Staphylococcus aureus ATCC 29213 in C57BL/6 mouse model of bacterial keratitis assessed as log reduction in number of viable bacterial colonies in infected cornea at 0.8 mg/ml, TOP administered 4 times a day for 3 consecutive days; format: functional; details: time 3 day
Lipopolysaccharide (LPS) [26] = assay: Displacement of BODIPY-TR-cadaverine from Escherichia coli Lipopolysaccharide at 2 times MIC measured for 30 mins by fluorescence based microplate reader assay relative to control
Pseudomonas aeruginosa = assay: Antibacterial activity against Pseudomonas aeruginosa ATCC 9027 in C57BL/6 mouse model of bacterial keratitis assessed as log reduction in number of viable bacterial colonies in infected cornea at 0.8 mg/ml, TOP administered 4 times a day for 3 consecutive days; format: functional; details: time 3 day
Staphylococcus aureus [27] = assay: Bactericidal activity against Staphylococcus aureus ATCC 29213 assessed as bacterial killing at 8 times MIC measured after 24 hrs by time-killing assay relative to control; format: functional
[28] = Cytotoxicity against HEK293 cells assessed as cell viability at 6.25 ug/ml incubated for 24 hrs by CCK-8 assay relative to control; format: toxicity, cell-based; details: human, at 6.25 µg/mL, read-out: Activity
[29] = Cytotoxicity against mouse NCTC clone 929 cells assessed as cell viability incubated for 24 hrs by CCK-8 assay; format: toxicity, cell-based
Staphylococcus aureus [30] = assay: Antibacterial activity against Staphylococcus aureus ATCC 29213 assessed as fold increase in MIC incubated for 24 hrs in presence of 4.5 mM K+ by CLSI based broth dilution method; format: functional
Staphylococcus aureus [31] = assay: Antibacterial activity against Staphylococcus aureus NCTC10442 assessed as fold increase in MIC incubated for 24 hrs in presence of 140 mM Na+ by CLSI based broth dilution method; format: functional

## C=C[C@@](C)(/C=C/c1ccc(OCCCCN(CCCN(C)C)CCCN(C)C)cc1)CCC=C(C)C
Escherichia coli [1]
  fold change (FC): <2
Staphylococcus aureus [2]
  fold change (FC): < 4
Escherichia coli [3]
  Activity: 95.7%
Staphylococcus aureus [4]
  fold change (FC): <2
Klebsiella pneumoniae
  MIC: 3.12 µg/mL (≈ 6.28 µM)
Acinetobacter baumannii [5]
  MIC: 3.12 µg/mL (≈ 6.28 µM)
Escherichia coli [6]
  fold change (FC): <2
Staphylococcus aureus [7]
  Activity: 11.49%
Staphylococcus aureus [8]
  MIC: 3.12 µg/mL (≈ 6.28 µM)
Staphylococcus aureus [9]
  Activity: 24.19%
Cell membrane
  Activity: Dde
Staphylococcus aureus [10]
  Activity: 42.21%
[11]
  viability at 24 h, 12.5 ug/ml: 84.5%
Acinetobacter baumannii [12]
  fold change (FC): <2
Lipopolysaccharide (LPS) [13]
  Activity: 64.4%
Lipoteichoic acid [14]
  Activity: 35.3%
[15]
  Activity: Non-Toxic
Escherichia coli [16]
  Activity: Active
Lipoteichoic acid [17]
  Activity: 37.2%
Staphylococcus aureus [18]
  MIC: 1.56 µg/mL (≈ 3.13 µM)
[19]
  CC50 at 24 h: 28.6 µg/mL (≈ 57.5 µM)
Escherichia coli [20]
  Activity: 38.45%
Staphylococcus aureus [21]
  fold change (FC): <2
Staphylococcus aureus [22]
  Activity: 75.68%
Escherichia coli [23]
  Activity: 91.55%
Escherichia coli [24]
  Activity: 2.38%
Staphylococcus aureus [25]
  log(activity): 5.7
Lipopolysaccharide (LPS) [26]
  Activity: 53.3%
Pseudomonas aeruginosa
  log(activity): 2.95
Staphylococcus aureus [27]
  Activity: 100%
[28]
  viability at 24 h, 6.25 ug/ml: 93.8%
[29]
  CC50 at 24 h: 36.8 µg/mL (≈ 73.9 µM)
Staphylococcus aureus [30]
  fold change (FC): <2
Staphylococcus aureus [31]
  fold change (FC): <2
